Like-named read-outs stand apart in the source and are kept apart here.
Columns and labels:
[1] = tested on: MCF-7 (human adenocarcinoma) cells; experiment: WST-1 antiproliferative assay, MCF-7; format: cell-based; conditions: 3–4 days, 0.5–250 µM, neg = negative in concentration used; for IC50: read-out: IC50 ± SD, MCF-7
Description: (§1) Encouraged by promising results in the field of antiproliferative derivatives of acetylenic sulfanylquinoline derivatives, in this study the decision was made to combine the biological potentials of sulfamoylquinoline and alkynyl moieties, with the intention of obtaining compounds with better activity against breast cancer cell lines. The SAR analyses of the acetylenic sufamoylquinoline were based on the cell growth inhibition potencies on the MCF-7 (human adenocarcinoma), MDA-MB-231 and T-47D (human ductal carcinoma) cells using the WST-1 assay. The results from the in vitro cytotoxicity assay are expressed as the concentration of compound (µM) that inhibited the proliferation of 50% of the tumor cells, compared to the control untreated cells (IC50). Cisplatin was used as a positive control to induce cell death.
(§2) The cell lines (MCF-7, MDA-MB-231, and nontumor HFF-1) were cultured and kept in Dubecco’s modified Eagle medium (DMEM) supplemented with 10% fetal bovine serum (FBS) 1.000 IU·mL^−1 penicillin and 10 mg·m^−1·mL^−1 streptomycin in atmosphere with 5% CO2 at 37 °C. The cells were seeded using a series of standard 96-well plates (Corning). Test compounds were prepared at a concentration of 5.0 mM dimethyl sulfoxide (DMSO). Freshly prepared dilutions of the test compounds in a culture medium at a concentration of 0.5–250 µM were added to the microtiter plates and the cells were grown for 3–4 days. Solvent control (DMSO) was included to check its potential inhibitory activity at the concentration used. After incubation, the cell growth rate was evaluated by performing a WST-1 assay. The amount of formazan produced was measured at 450 nm. Expermentally determined absorbance values were transformed into the cell percentage of growth as described previously. Each test point was performed in triplicate for each tested compound cocentration. The results were statistically analyzed using PraphPad Prism 6 software (Graphpad Software, Inc., La Jolla, CA, USA).

[2] = tested on: T47D (human ductal carcinoma) cells; experiment: WST-1 antiproliferative assay, T47D; format: cell-based; conditions: WST-1 assay, 3–4 days, 0.5–250 µM, neg = negative in concentration used; for IC50: read-out: IC50 ± SD, T47D
Description: as §1, §2

MDA-MB-231 cells = experiment: WST-1 antiproliferative assay, MDA-MB-231; format: cell-based, human; conditions: 3–4 days, 0.5–250 µM, neg = negative in concentration used, read-out: IC50 ± SD, MDA-MB-231
Description: as §1, §2

HFF-1 normal fibroblasts = experiment: WST-1 cytotoxicity assay, normal fibroblasts HFF-1; format: cell-based, human; conditions: 3–4 days, 0.5–250 µM, neg = negative in concentration used; for IC50: read-out: IC50 ± SD, HFF-1
Description: as §1, §2

[3] = Homo sapiens, MCF7, WST-1 assay
[4] = Homo sapiens, MDA-MB-231, WST-1 assay
[5] = Homo sapiens, HFF-1, WST-1 assay

SMILES	IC50 [1, 3] [µM]	IC50 ± SD, T47D [2]	IC50 (MDA-MB-231 cells; [4]) [µM]	IC50 ± SD, HFF-1 (HFF-1 normal fibroblasts; WST-1 assay)	melting point [°C]	IC50 ([2]; Homo sapiens, T47D) [µM]	IC50 ([1]; WST-1 assay) [µM]	IC50 [2] [µM]	IC50 (MDA-MB-231 cells; WST-1 assay) [µM]	IC50 (HFF-1 normal fibroblasts; WST-1 assay) [µM]	IC50 (HFF-1 normal fibroblasts; [5]) [µM]	IC50 ([2]; listed as 4-(3-propynylthio)-7-[N-methyl-N-(3-propynyl)sulfamoyl]quinoline) [µM]	IC50 ± SD, MCF-7 ([1]; WST-1 assay)
C#CCSc1nc2ccccc2cc1S(=O)(=O)N(C)CC#C [5a, 2-(3-Propynylthio)-3-[N-methyl-N-(3-propynyl)sulfamoyl]quinoline]	288 ± 3.45	neg	11.8 ± 0.87	neg	100 to 101								
C#CCN(C)S(=O)(=O)c1ccc2nc(Cl)ccc2c1 [2b, 2-Chloro-6-[N-methyl-N-(3-propynyl)sulfamoyl]quinoline]	22.9 ± 1.45		0.24 ± 0.01	neg	140 to 141	0.3 ± 0.03							
N.N.[Cl][Pt][Cl] [Cisplatin, reference compound]							77.76 ± 0.76	30.3 ± 0.34	17.6 ± 0.31	7.2 ± 0.6			
C#CCN(C)S(=O)(=O)c1cc2ccccc2nc1Cl [2a, 2-Chloro-3-[N-methyl-N-(3-propynyl)sulfamoyl]quinoline]	351 ± 6.32	neg ^1	140 ± 1.98	neg	110 to 111								
C#CC[Se]c1ccnc2ccc(S(=O)(=O)N(C)CC#C)cc12 [6d, 4-(3-Propynylseleno)-6-[N-methyl-N-(3-propynyl)sulfamoyl]quinoline]	259 ± 5.45	neg	0.68 ± 0.09		139 to 140						331 ± 4		
C#CCSc1ccnc2ccc(S(=O)(=O)N(C)CC#C)cc12 [5d, 4-(3-Propynylthio)-6-[N-methyl-N-(3-propynyl)sulfamoyl]quinoline]	236.8 ± 2.34	neg	202 ± 5.46	neg	139 to 140								
C#CCN(C)S(=O)(=O)c1ccc2ncc(S(=O)(=O)N(C)CC#C)cc2c1 [compound 12, 3,6-Di[N-methyl-N-(3-propynyl)sulfamoyl]quinoline]	3.14 ± 0.34		2.86 ± 0.34		138 to 139	2.5 ± 0.09					375.5 ± 3		
C#CC[Se]c1ccnc2c(S(=O)(=O)N(C)CC#C)cccc12 [6f, 4-(3-Propynylseleno)-8-[N-methyl-N-(3-propynyl)sulfamoyl]quinoline]	0.26 ± 0.01		64.5 ± 1.98		111 to 115	55.6 ± 1.78					317 ± 5.46		
C#CCN(C)S(=O)(=O)c1ccc2c(Cl)ccnc2c1 [2e, 4-Chloro-7-[N-methyl-N-(3-propynyl)sulfamoyl]quinoline]			59.3 ± 1.56	neg	119 to 120	26.8 ± 0.67							
C#CCSc1ccnc2cc(S(=O)(=O)N(C)CC#C)ccc12 [5e, 4-(3-Propynylthio)-7-[N-methyl-N-(3-propynyl)sulfamoyl]quinoline]	0.27 ± 0.03		7.12 ± 0.78		113 to 114			0.21 ± 0.01			276.1 ± 2.6	0.07	
C#CCN(C)S(=O)(=O)c1cnc2ccc(Cl)cc2c1 [compound 14, 6-Chloro-3-[N-methyl-N-(3-propynyl)sulfamoyl]quinoline]	118 ± 2.04		26.8 ± 1.45		146 to 147	11.7 ± 1.11					71.8 ± 1.6		
C#CCN(C)S(=O)(=O)c1cnc2ccccc2c1Cl [2c, 4-Chloro-3-[N-methyl-N-(3-propynyl)sulfamoyl]quinoline]			0.27 ± 0.02		120 to 121	2.24 ± 0.11					85.4 ± 1.6		
C#CC[Se]c1ccc2cc(S(=O)(=O)N(C)CC#C)ccc2n1 [6b, 2-(3-Propynylseleno)-6-[N-methyl-N-(3-propynyl)sulfamoyl]quinoline]	22.72 ± 0.12				179 to 180	10.6 ± 0.15			1.32 ± 0.12		92.9 ± 2		
O=S(=O)(Cl)c1cnc2ccc(Cl)cc2c1 [compound 13, 6-chloro-3-chlorosulfonylquinoline]					109 to 110								
C#CCSc1c(S(=O)(=O)N(C)CC#C)cnc2ccccc12 [5c, 4-(3-Propynylthio)-3-[N-methyl-N-(3-propynyl)sulfamoyl]quinoline]			116 ± 2.13	neg	101 to 102	205 ± 6.02							neg
C#CC[Se]c1nc2ccccc2cc1S(=O)(=O)N(C)CC#C [6a, 2-(3-Propynylseleno)-3-[N-methyl-N-(3-propynyl)sulfamoyl]quinoline]	237.9 ± 2.11		0.42 ± 0.01	neg	109 to 110	146 ± 1.98							
C#CC[Se]c1c(S(=O)(=O)N(C)CC#C)cnc2ccccc12 [6c, 4-(3-Propynylseleno)-3-[N-methyl-N-(3-propynyl)sulfamoyl]quinoline]	113		17.6 ± 0.87	neg	122 to 123	313 ± 7.98							
C#CCSc1ccc2ncc(SCC#C)cc2c1 [compound 11, 3,6-Di(3-propynylthio)quinoline]	7.36 ± 0.45		8.73 ± 0.78		97 to 98	127 ± 2.01					176 ± 3		
C#CCN(C)S(=O)(=O)c1ccc2nccc(Cl)c2c1 [2d, 4-Chloro-6-[N-methyl-N-(3-propynyl)sulfamoyl]quinoline]	233.8 ± 1.56		180 ± 2.35		124 to 125	292 ± 2.34					425.2 ± 1.46		
C#CCSc1ccnc2c(S(=O)(=O)N(C)CC#C)cccc12 [5f, 4-(3-Propynylthio)-8-[N-methyl-N-(3-propynyl)sulfamoyl]quinoline]	13.09 ± 0.11		21.2 ± 0.96		119 to 120	0.27 ± 0.03					366.1 ± 1.46		
C#CC[Se]c1ccnc2cc(S(=O)(=O)N(C)CC#C)ccc12 [6e, 4-(3-Propynylseleno)-7-[N-methyl-N-(3-propynyl)sulfamoyl]quinoline]	109 ± 2.11		23.5 ± 1.02	neg	108 to 109	160 ± 3.23							
C#CCN(C)S(=O)(=O)c1cccc2c(Cl)ccnc12 [2f, 4-Chloro-8-[N-methyl-N-(3-propynyl)sulfamoyl]quinoline]	61.2 ± 1.65		204 ± 3.1		130 to 133	295.6 ± 2.56					153 ± 3		
C#CCSc1ccc2cc(S(=O)(=O)N(C)CC#C)ccc2n1 [5b, 2-(3-Propynylthio)-6-[N-methyl-N-(3-propynyl)sulfamoyl]quinoline]	18.4 ± 0.98			neg	164 to 165	182 ± 3.23			0.27 ± 0.03				

— PMC6155812, “Synthesis, Anti-Breast Cancer Activity, and Molecular Docking Study of a New Group of Acetylenic Quinolinesulfonamide Derivatives” (Molecules : A Journal of Synthetic Chemistry and Natural …, 2017)
